Data on 10 compounds can be found in patent publication US7122543B2, “Substituted benzoic acid derivatives having NF-κB inhibiting action” (Daiichi Suntory Pharma Co., Ltd., priority 2001, dated 2006).

Structures are written as SMILES.

One test deals with NF-κB. In words: NF-κB luciferase reporter assay in A549/NF-κBLuc cells stimulated with IL-1β. In kind it is cell-based, human. Particulars: A549/NF-κBLuc cells; compound added 1 hour before IL-1β, 3 hours more incubation; luciferase activity as index. As to the method:
Effects of Compounds on Human Lung Cancer A549 Cells (A549/NF-κBLuc) Stably Transfected with Luciferase Plasmid (pNFκB-Luc, Stratagene, U.S.A.) Having the NF-κB Regulatory Sequence
Using lipofectamine (Lifetech Oriental K.K., Tokyo), pNFκB-Luc were cotransfected with pSV2neo (Clontech, U.S.A.) into A549 cells (ATCC CCL185) according to the conventional method, and A549/NF-κBLuc stably transfected with pNFκB-Luc were selected by adding G418 sulfate (1 mg/ml, Lifetech Oriental K.K.) to the culture medium.
A compound prepared in an Example was added to A549/NF-κBLuc, then IL-1β which was able to activate the NF-κB was added at 1 hour thereafter and incubation was continued for 3 hours more. It has been made clear by using a luciferase activity as an index that the compound obtained in the Example suppresses the activation of NF-κB by stimulated with IL-1β.
The compound `COC1=C(OC)C(=O)C(Cc2ccc(-c3ccncc3)c(C(=O)N[C@@H](C)c3ccccc3)c2)=C(C)C1=O` [Example 74b, (S)-N-[5-(5,6-Dimethoxy-3-methyl-1,4-benzoquinon-2-yl)methyl-2-(4-pyridyl)benzoyl]-1-phenylethylamine] displayed an IC50 value of more than 45 µg/mL.

Staying with this test, now noted: Homo sapiens, A549, A549/NF-κBLuc cells; compound added 1 hour before IL-1β, 3 hours more incubation; luciferase activity as index.
The compound `COC1=C(OC)C(=O)C(Cc2ccc(-c3cccc(OC)c3)c(C(=O)Nc3ccc(OC)cc3)c2)=C(C)C1=O` [Example 67, N-[5-(5,6-Dimethoxy-3-methyl-1,4-benzoquinon-2-yl)methyl-2-(3-methoxyphenyl)benzoyl]-4-methoxyaniline] gave an IC50 of more than 45 µg/mL.
The same measure, in the same setting: as for `COC1=C(OC)C(=O)C(Cc2ccc(-c3ccccc3OC)c(C(=O)Nc3ccc(OC)cc3)c2)=C(C)C1=O` [Example 68, N-[5-(5,6-Dimethoxy-3-methyl-1,4-benzoquinon-2-yl)methyl-2-(2-methoxyphenyl)benzoyl]-4-methoxyaniline], the figure is more than 45 µg/mL; as for `COC1=C(OC)C(=O)C(Cc2cccc(C(=O)Nc3ccc(C(F)(F)F)cc3)c2-c2ccncc2)=C(C)C1=O` [Example 73, N-[3-(45,6-Dimethoxy-3-methyl-1,4-benzoquinon-2-yl)methyl-2-(4-pyridyl)benzoyl]-4-trifluoromethylaniline], more than 30 µg/mL; as for `COC1=C(OC)C(=O)C(Cc2ccc(-c3ccncc3)c(C(=O)N[C@@H](C)c3ccccc3)c2)=C(C)C1=O` [Example 74a, (S)-N-[5-(5,6-Dimethoxy-3-methyl-1,4-benzoquinon-2-yl)methyl-2-(4-pyridyl)benzoyl]-1-phenylethylamine], more than 45 µg/mL.
On the same count and under the same terms, as for `COC1=C(OC)C(=O)C(Cc2ccc(-c3ccncc3)c(C(=O)N[C@H](C)c3ccccc3)c2)=C(C)C1=O` [Example 75a, (R)-N-[5-(5,6-Dimethoxy-3-methyl-1,4-benzoquinon-2-yl)methyl-2-(4-pyridyl)benzoyl]-1-phenylethylamine], the figure is more than 45 µg/mL; as for `COC1=C(OC)C(=O)C(Cc2ccc(-c3ccncc3)c(C(=O)NC3CCCCC3)c2)=C(C)C1=O` [Example 76a, N-[5-(5,6-Dimethoxy-3-methyl-1,4-benzoquinon-2-yl)methyl-2-(4-pyridyl)benzoyl]cyclohexyl-amine], more than 45 µg/mL; as for `COC1=C(OC)C(=O)C(Cc2ccc(-c3ccncc3)c(C(=O)NC3CCCC3)c2)=C(C)C1=O` [Example 77a, N-[5-(5,6-Dimethoxy-3-methyl-1,4-benzoquinon-2-yl)methyl-2-(4-pyridyl)benzoyl]cyclopentylamine], more than 45 µg/mL.
Take `COC1=C(OC)C(=O)C(Cc2ccc(-c3ccncc3)c(C(=O)NC3CC3)c2)=C(C)C1=O` [Example 78a, N-[5-(5,6-Dimethoxy-3-methyl-1,4-benzoquinon-2-yl)methyl-2-(4-pyridyl)benzoyl]cyclopropyl-amine]: the IC50 was more than 45 µg/mL.
On the same count and under the same terms, then `CCC(CC)NC(=O)c1cc(CC2=C(C)C(=O)C(OC)=C(OC)C2=O)ccc1-c1ccncc1` [Example 79a, N-[5-(5,6-Dimethoxy-3-methyl-1,4-benzoquinon-2-yl)methyl-2-(4-pyridyl)benzoyl]-1-ethylpropylamine], with more than 45 µg/mL.
